Experiments:
Assay in all cases: combination Emax (second highest fraction inhibited in the dose matrix, 72 h); higher = more inhibition; extreme values may be limits of the assay
[1] = tested on: LU-139 (Small Cell Lung Carcinoma)
Outline: (§1)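 After 24 hours at 37°C and 5% CO2 in 1536-well plates, cells in DMEM/F12 or RPMI plus 10% FBS received two-drug dose matrices for 72 hours. Viability came from CellTiter-Glo 2.0 luminescence and was scaled as inhibition, anchored at 0 by vehicle wells and at 1 by blank wells. Combination Emax is taken as the second-highest inhibition in the matrix, and Bliss excess as the observed combination effect less EA + EB − EA·EB, with EA and EB the single-agent effects.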

[2] = tested on: HDLM-2 (Hodgkin's Lymphoma)
Outline: as §1

[3] = tested on: OVCAR-8 (Ovarian Carcinoma)
Outline: as §1

[4] = tested on: SU-DHL-6 (B-Cell Non-Hodgkin's Lymphoma)
Outline: as §1

[5] = tested on: NCI-H69 (Small Cell Lung Carcinoma)
Outline: as §1

[6] = tested on: K5 (Thyroid Gland Carcinoma)
Outline: as §1

[7] = tested on: LoVo (Colorectal Carcinoma)
Outline: as §1

[8] = tested on: RT-112 (Bladder Carcinoma)
Outline: as §1

NCI-H2795 (Mesothelioma) = tested on: NCI-H2795 (Mesothelioma)
Outline: as §1

[9] = tested on: NCI-H747 (Colorectal Carcinoma)
Outline: as §1

Mewo (Melanoma) = tested on: Mewo (Melanoma)
Outline: as §1

[10] = tested on: KARPAS-231 (B-Cell Non-Hodgkin's Lymphoma)
Outline: as §1

[11] = tested on: RPMI-6666 (Non-Cancerous)
Outline: as §1

[12] = tested on: 8305C (Thyroid Gland Carcinoma)
Outline: as §1

[13] = tested on: LB771-HNC (Head and Neck Carcinoma)
Outline: as §1

[14] = tested on: MHH-PREB-1 (B-Cell Non-Hodgkin's Lymphoma)
Outline: as §1

[15] = tested on: SW1271 (Small Cell Lung Carcinoma)
Outline: as §1

[16] = tested on: Hs-633T (Other Solid Carcinomas)
Outline: as §1

[17] = tested on: HO-1-u-1 (Oral Cavity Carcinoma)
Outline: as §1

Row | Structure (SMILES) | combination Emax [1] | combination Emax [2] | combination Emax [3] | combination Emax [4] | combination Emax [5] | combination Emax [6] | combination Emax [7] | combination Emax [8] | combination Emax (NCI-H2795 (Mesothelioma)) | combination Emax [9] | combination Emax (Mewo (Melanoma)) | combination Emax [10] | combination Emax [11] | combination Emax [12] | combination Emax [13] | combination Emax [14] | combination Emax [15] | combination Emax [16] | combination Emax [17]
1 | NC1(C(=O)N[C@@H](CCO)c2ccc(Cl)cc2)CCN(c2ncnc3[nH]ccc23)CC1 [Capivasertib] + CCN(CCO)CCCOc1ccc2c(Nc3cc(CC(=O)Nc4cccc(F)c4)[nH]n3)ncnc2c1 [AZD2811] (first compound max 10 µM, 7x7, partner max 1 µM) | 0.293 | 0.395 | 0.393 | 1 | 0.877 | 0.554 | 0.632 | 0.375 | 0.413 | 0.631 | 0.401 | 0.551 | 0.675 | 0.452 | 0.489 | 0.257 | 0.315 | 0.432 | 0.848
2 | NC1(C(=O)N[C@@H](CCO)c2ccc(Cl)cc2)CCN(c2ncnc3[nH]ccc23)CC1 [Capivasertib] + COc1nnc2ccc(N3CCC(c4ccc(OCCN5CCN(C)C(=O)[C@H]5C)cc4)CC3)nn12 [AZD5153] (first compound max 10 µM, 7x7, partner max 1 µM) | 0.864 | 0.389 | 0.732 | 1 | 0.829 | 0.929 | 0.642 | 0.383 | 0.398 | 0.855 | 0.433 | 0.229 | 0.815 | 0.495 | 0.875 | 0.384 | 0.459 | 0.519 | 0.91
3 | NC1(C(=O)N[C@@H](CCO)c2ccc(Cl)cc2)CCN(c2ncnc3[nH]ccc23)CC1 [Capivasertib] + C[C@@H]1COCCN1C2=NC(=NC(=C2)C3(CC3)[S@](=N)(=O)C)C4=C5C=CNC5=NC=C4 [AZD6738] (first compound max 10 µM, 7x7, partner max 10 µM) | 0.25 | 0.518 | 0.776 | 1 | 0.671 | 0.687 | 0.801 | 0.62 | 0.737 | 0.626 | 0.557 | 0.691 | 0.775 | 0.683 | 0.674 | 0.749 | 0.512 | 0.894 | 0.887
4 | NC1(C(=O)N[C@@H](CCO)c2ccc(Cl)cc2)CCN(c2ncnc3[nH]ccc23)CC1 [Capivasertib] + Cn1cnc2c(F)c(Nc3ccc(Br)cc3Cl)c(C(=O)NOCCO)cc21 [Selumetinib] (first compound max 10 µM, 7x7, partner max 10 µM) | 0.0716 | 0.205 | 0.303 | 1 | 0.466 | 0.864 | 0.717 | 0.475 | 0.871 | 0.909 | 0.589 | 0.0035 | 0.737 | 0.527 | 0.51 | 0.205 | 0.674 | 0.633 | 0.878
5 | Cc1nc(Nc2ncc(C(=O)Nc3c(C)cccc3Cl)s2)cc(N2CCN(CCO)CC2)n1 [Dasatinib] + CC(=O)Nc1cccc(-n2c(=O)n(C3CC3)c(=O)c3c(Nc4ccc(I)cc4F)n(C)c(=O)c(C)c32)c1 [Trametinib] (first compound max 2 µM, 7x7, partner max 1 µM) | 0.0497 | 0.12 | 0.671 | 1 | 0.124 | 0.929 | 0.801 | 0.584 | 0.972 | 0.909 | 0.589 | 0.476 | 0.686 | 0.763 | 0.202 | 0.0875 | 0.928 | 0.939 | 0.713
6 | COc1cc2ncnc(Nc3ccc(F)c(Cl)c3)c2cc1OCCCN1CCOCC1 [Gefitinib] + CC(C)n1c(=O)n(C)c2cnc3cc(F)c(-c4ccc(OCCCN5CCCCC5)nc4)cc3c21 [AZD1390] (first compound max 10 µM, 7x7, partner max 0.3 µM) | 0.0288 | 0.192 | 0.223 | 0.433 | 0.286 | 0.0692 | 0.421 | 0.176 | 0.324 | 0.369 | 0.0376 | 0.24 | 0.615 | 0.298 | 0.0839 | 0.123 | 0.188 | 0.203 | 0.487
7 | CS(=O)(=O)CCNCc1ccc(-c2ccc3ncnc(Nc4ccc(OCc5cccc(F)c5)c(Cl)c4)c3c2)o1 [Lapatinib] + C[C@@H](Oc1cc(-c2cnn(C3CCNCC3)c2)cnc1N)c1c(Cl)ccc(F)c1Cl [Crizotinib] (first compound max 10 µM, 7x7, partner max 10 µM) | 0.936 | 0.552 | 0.79 | 0.983 | 0.845 | 0.984 | 0.708 | 0.941 | 0.949 | 0.926 | 0.537 | 0.57 | 0.843 | 0.94 | 0.854 | 0.96 | 0.529 | 0.934 | 0.961
8 | CC(=O)c1c(C)c2cnc(Nc3ccc(N4CCNCC4)cn3)nc2n(C2CCCC2)c1=O [Palbociclib] + CC1(C)CCC(CN2CCN(c3ccc(C(=O)NS(=O)(=O)c4ccc(NCC5CCOCC5)c([N+](=O)[O-])c4)c(Oc4cnc5[nH]ccc5c4)c3)CC2)=C(c2ccc(Cl)cc2)C1 [Venetoclax] (first compound max 10 µM, 7x7, partner max 1 µM) | 0.37 | 0.731 | 0.19 | 0.976 | 0.764 | 0.452 | 0.484 | 0.279 | 0.351 | 0.343 | 0.437 | 0.889 | 0.797 | 0.431 | 0.149 | 0.412 | 0.214 | 0.49 | 0.271
9 | CC(=O)c1c(C)c2cnc(Nc3ccc(N4CCNCC4)cn3)nc2n(C2CCCC2)c1=O [Palbociclib] + Cc1c2c(nn1C)CSCc1cc(n(C)n1)CSc1cc(c3ccccc3c1)OCCCc1c(C(=O)O)n(C)c3c-2c(Cl)ccc13 [AZD5991] (first compound max 10 µM, 7x7, partner max 1 µM) | 0.25 | 0.97 | 0.129 | 1 | 0.471 | 0.541 | 0.557 | 0.568 | 0.823 | 0.608 | 0.569 | 0.657 | 0.73 | 0.666 | 0.448 | 0.511 | 0.301 | 0.519 | 0.367
10 | CC(=O)c1c(C)c2cnc(Nc3ccc(N4CCNCC4)cn3)nc2n(C2CCCC2)c1=O [Palbociclib] + Cn1cnc2c(F)c(Nc3ccc(Br)cc3Cl)c(C(=O)NOCCO)cc21 [Selumetinib] (first compound max 10 µM, 7x7, partner max 10 µM) | 0.282 | 0.335 | 0.146 | 0.806 | 0.487 | 0.627 | 0.679 | 0.427 | 0.89 | 0.811 | 0.485 | 0.264 | 0.65 | 0.469 | 0.194 | 0.445 | 0.428 | 0.599 | 0.465
11 | C[C@@H](c1ccc2nccn2c1)n1nnc2ncc(-c3cnn(C)c3)nc21 [Savolitinib] + CC1(C)CCC(CN2CCN(c3ccc(C(=O)NS(=O)(=O)c4ccc(NCC5CCOCC5)c([N+](=O)[O-])c4)c(Oc4cnc5[nH]ccc5c4)c3)CC2)=C(c2ccc(Cl)cc2)C1 [Venetoclax] (first compound max 1 µM, 7x7, partner max 1 µM) | 0.281 | 0.28 | 0.0706 | 0.465 | 0.372 | 0.0879 | 0.195 | 0.156 | 0.22 | 0.181 | 0.194 | 0.866 | 0.243 | 0.217 | 0.115 | 0.0731 | 0.161 | 0.16 | 0.0993
12 | C[C@@H](c1ccc2nccn2c1)n1nnc2ncc(-c3cnn(C)c3)nc21 [Savolitinib] + Cc1c2c(nn1C)CSCc1cc(n(C)n1)CSc1cc(c3ccccc3c1)OCCCc1c(C(=O)O)n(C)c3c-2c(Cl)ccc13 [AZD5991] (first compound max 1 µM, 7x7, partner max 1 µM) | 0.126 | 0.962 | 0.0965 | 1 | 0.159 | 0.14 | 0.195 | 0.602 | 0.574 | 0.337 | 0.265 | 0.606 | 0.523 | 0.196 | 0.412 | 0.0906 | 0.166 | 0.12 | 0.196
13 | Cn1cnc2c(F)c(Nc3ccc(Br)cc3Cl)c(C(=O)NOCCO)cc21 [Selumetinib] + C=CCn1c(=O)c2cnc(Nc3ccc(N4CCN(C)CC4)cc3)nc2n1-c1cccc(C(C)(C)O)n1 [AZD1775] (first compound max 10 µM, partner max 1 µM) | 0.332 | 0.71 | 0.872 | 0.616 | 0.133 | 0.596 | 0.723 | 0.61 | 0.851 | 0.793 | 0.47 | 0.982 | 0.829 | 0.481 | 0.452 | 0.777 | 0.565 | 0.628 | 0.456

Source: the supplement of paper PMC11061612
